Measured values from patent US20020165233A1, “Quinoxaline containing medicaments for post exposure prophylaxis of an HIV infection” (priority 1999, published 2002).
Entries after “also recorded” stand apart in the source; their conditions may differ.

Key:
RT-SHIV [1] = experiment: RT-SHIV proviral DNA in PBMC and LNMC (quantitative PCR); format: in vivo, rhesus monkeys; settings: for RT-SHIV proviral DNA in LNMC: 8 w p.e.
Protocol: (§1) Nine rhesus monkeys (male, 2 years old, 2-3 kg) were seronegative for SIV, Simian T cell Leukemia Virus (STLV), B virus and Type D retroviruses. 15 mg/kg body weight of COMPOUND A was subcutaneously administered into animals twice a day (12 h interval) for 28 d. Animals were divided into three groups. All animals were intravenously administered with 100 TCID50 of RT-SHIV The first group consisted of three animals treated with COMPOUND A from 8 h post exposure for 28 d. The second group of animals was treated with COMPOUND A from 24 h post exposure for 28 d. The third group (control) received the solvent that was used to dissolve COMPOUND A (PEG400:glycerol:water=[…]) from 8 h post exposure for 28 d.
(§2) Blood was collected from all the animals either just before or 2 h after the drug administration on 0, 3, 7, 10, 14, 21, 29 d post exposure in order to check the drug concentration, otherwise in intervals of 2 to 8 weeks. Biopsy of inguinal lymph nodes was conducted on 17 d or 18 d and 8 weeks post exposure in two animals per group. Cerebrospinal fluid (CSF) was collected from the animals just before biopsy.
T-SHIV DNA Amount in Peripheral Blood Mononuclear Cells (PBMC) and Lymph Node Cells (LNC):
PBMC were separated by Ficoll-Hypaque gradient centrifugation. Cellular DNA was purified from 1×10^6 cells with a commercial DNA purification kit (Qiagen). Gag sequence of viral DNA was PCR amplified with the primers SG05i and SG06i. Nested PCR amplification with two sets of primers, i.e. F34C (nt. 9065 to 9082)(5′-CCTACCTACAATATGGGT-3′) and F35C (nt. 9800 to 9778)(5′-[…]-3′), the second primers: N3 (nt. 9182 to 9201)(5′-GMGATGGATACTCGCAATC-3′) and N4, (nt. 9552 to 9533)(5′-TMTCCTGCCAATCTGGTAT-3′) was performed to detect one copy per 100,000 cells. Detection and quantitative determination of the viral DNA copy number was conducted as described for plasma viral load. The cell numbers of PBMC and LNC were estimated by imaging analysis of cyber green-stained chromosomal DNA separated by agarose gel electrophoresis.
The detection limit was 1 copy DNA per 100,000 cells. In contrast to the untreated animals, the proviral DNA levels were very low in the treated groups.

RT-SHIV [2] = experiment: Quantitative virus isolation (QVI) from PBMC co-cultured with C8166 and viral RNA PCR of culture supernatant; format: in vivo, rhesus monkeys; parameters: key to viral RNA PCR of QVI culture supernatant: +=positive; −=negative; settings: animal #1, 15 mg/kg s.c. b.i.d. 8h thru 28 d post exp
Protocol: as §1, §2
Viral RNA was detected from 7 or 10 d post exposure up to 40 weeks post exposure in all plasma specimen from two animals (FIG. 2). […] While in two animals plasma viral RNA levels persisted around 10^5 copy/ml after a moderate reduction occurred at 4 weeks post exposure, viral RNA levels in one animal declined to about 10^3 copy/ml after 15 weeks post exposure (FIG. 2). The RT-SHIV infection in PIBMC was monitored by quantitative virus isolation (QVI) and quantitative PCR assay of proviral DNA. Serially diluted PBMC were co-cultured with C8166 to determine the minimal PBMC cell number to provoke a productive infection of C8166 cells. The number from the QVI test indicates infectious cells per one million PBMC. QVI results were consistent with plasma viral RNA levels. The numbers indicates the results of QVI. A + or − on the right indicates results of viral RNA PCR assay for the detection of virus in culture supernatant. +=positive, −=negative.

## CC[C@H]1C(=O)Nc2ccc(F)cc2N1C(=O)OC(C)C [Compound A, (3S)-ethyl-6-fluoro-4-isopropyloxycarbonyl-3,4-dihydroquinoxalin-2(1H)-one]
RT-SHIV [1]; animal #1, treated 8h thru 28 dpi, 2 w p.e.
  RT-SHIV proviral DNA in PBMC: 0 viral DNA copies/100,000 cells
RT-SHIV [1]; animal #1, treated 8h thru 28 dpi, 4 w p.e.
  RT-SHIV proviral DNA in PBMC: 0 viral DNA copies/100,000 cells
RT-SHIV [1]; animal #1, treated 8h thru 28 dpi, 15 w p.e.
  RT-SHIV proviral DNA in PBMC: 1 viral DNA copies/100,000 cells
RT-SHIV [1]; animal #1, treated 8h thru 28 dpi, 40 w p.e.
  RT-SHIV proviral DNA in PBMC: 0 viral DNA copies/100,000 cells
RT-SHIV [1]; animal #1, treated 8h thru 28 dpi, 50 w p.e.
  RT-SHIV proviral DNA in PBMC: 0 viral DNA copies/100,000 cells
RT-SHIV [1]; animal #3, treated 24 h thru 28 d pi, 2 w p.e.
  RT-SHIV proviral DNA in PBMC: 0 viral DNA copies/100,000 cells
RT-SHIV [1]; animal #3, treated 24 h thru 28 d pi, 4 w p.e.
  RT-SHIV proviral DNA in PBMC: 0 viral DNA copies/100,000 cells
RT-SHIV [1]; animal #3, treated 24 h thru 28 d pi, 15 w p.e.
  RT-SHIV proviral DNA in PBMC: 16 viral DNA copies/100,000 cells
RT-SHIV [1]; animal #3, treated 24 h thru 28 d pi, 40 w p.e.
  RT-SHIV proviral DNA in PBMC: 0 viral DNA copies/100,000 cells
RT-SHIV [1]; animal #3, treated 24 h thru 28 d pi, 50 w p.e.
  RT-SHIV proviral DNA in PBMC: 2 viral DNA copies/100,000 cells
RT-SHIV [1]; animal #4, treated 24 h thru 28 d pi, 2 w p.e.
  RT-SHIV proviral DNA in PBMC: 0 viral DNA copies/100,000 cells
RT-SHIV [1]; animal #4, treated 24 h thru 28 d pi, 4 w p.e.
  RT-SHIV proviral DNA in PBMC: 0 viral DNA copies/100,000 cells
RT-SHIV [1]; animal #4, treated 24 h thru 28 d pi
  RT-SHIV proviral DNA in LNMC: 1 viral DNA copies/100,000 cells
RT-SHIV [1]; animal #4, treated 24 h thru 28 d pi, 15 w p.e.
  RT-SHIV proviral DNA in PBMC: 0 viral DNA copies/100,000 cells
RT-SHIV [1]; animal #4, treated 24 h thru 28 d pi, 40 w p.e.
  RT-SHIV proviral DNA in PBMC: 0 viral DNA copies/100,000 cells
RT-SHIV [1]; animal #4, treated 24 h thru 28 d pi, 50 w p.e.
  RT-SHIV proviral DNA in PBMC: 0 viral DNA copies/100,000 cells
RT-SHIV [1]; animal #5, treated 8h thru 28 dpi, 2 w p.e.
  RT-SHIV proviral DNA in PBMC: 0 viral DNA copies/100,000 cells
RT-SHIV [1]; animal #5, treated 8h thru 28 dpi, 4 w p.e.
  RT-SHIV proviral DNA in PBMC: 0 viral DNA copies/100,000 cells
RT-SHIV [1]; animal #5, treated 8h thru 28 dpi
  RT-SHIV proviral DNA in LNMC: 2 viral DNA copies/100,000 cells
RT-SHIV [1]; animal #5, treated 8h thru 28 dpi, 15 w p.e.
  RT-SHIV proviral DNA in PBMC: 0 viral DNA copies/100,000 cells
RT-SHIV [1]; animal #5, treated 8h thru 28 dpi, 40 w p.e.
  RT-SHIV proviral DNA in PBMC: 0 viral DNA copies/100,000 cells
RT-SHIV [1]; animal #5, treated 8h thru 28 dpi, 50 w p.e.
  RT-SHIV proviral DNA in PBMC: 0 viral DNA copies/100,000 cells
RT-SHIV [1]; animal #10, treated 8h thru 28 dpi, 2 w p.e.
  RT-SHIV proviral DNA in PBMC: 0 viral DNA copies/100,000 cells
RT-SHIV [1]; animal #10, treated 8h thru 28 dpi, 4 w p.e.
  RT-SHIV proviral DNA in PBMC: 0 viral DNA copies/100,000 cells
RT-SHIV [1]; animal #10, treated 8h thru 28 dpi, 15 w p.e.
  RT-SHIV proviral DNA in PBMC: 7 viral DNA copies/100,000 cells
RT-SHIV [1]; animal #10, treated 8h thru 28 dpi, 40 w p.e.
  RT-SHIV proviral DNA in PBMC: 1 viral DNA copies/100,000 cells
RT-SHIV [1]; animal #10, treated 8h thru 28 dpi, 50 w p.e.
  RT-SHIV proviral DNA in PBMC: 5 viral DNA copies/100,000 cells
RT-SHIV [1]; animal #11, treated 24 h thru 28 d pi, 2 w p.e.
  RT-SHIV proviral DNA in PBMC: 0 viral DNA copies/100,000 cells
RT-SHIV [1]; animal #11, treated 24 h thru 28 d pi, 4 w p.e.
  RT-SHIV proviral DNA in PBMC: 0 viral DNA copies/100,000 cells
RT-SHIV [1]; animal #11, treated 24 h thru 28 d pi, 15 w p.e.
  RT-SHIV proviral DNA in PBMC: 1 viral DNA copies/100,000 cells
RT-SHIV [1]; animal #11, treated 24 h thru 28 d pi, 40 w p.e.
  RT-SHIV proviral DNA in PBMC: 0 viral DNA copies/100,000 cells
RT-SHIV [1]; animal #11, treated 24 h thru 28 d pi, 50 w p.e.
  RT-SHIV proviral DNA in PBMC: 0 viral DNA copies/100,000 cells
RT-SHIV [1]; treated groups versus untreated animals
  proviral DNA levels (persistent infection) in treated groups relative to untreated: very low; also recorded: far lower level of persistent infection
RT-SHIV [2]; week 2 post exp.
  viral RNA PCR of QVI culture supernatant: −/−
RT-SHIV [2]; week 6 post exp.
  Quantitative virus isolation (QVI): 4 infectious cells per one million PBMC
  viral RNA PCR of QVI culture supernatant: +
RT-SHIV [2]; week 8 post exp.
  Quantitative virus isolation (QVI): 16 infectious cells per one million PBMC
